# Source: US5262411A, “Isocephem derivatives, and antimicrobial composition containing the derivatives” (Otsuka Pharmaceutical Co., Ltd., priority 1989, dated 1993)
# Where two headings read alike, the source gives them in different places.
# Key:
# Format in all cases: cell-based
# S. aureaus FDA-209P = assay: MIC against S. aureaus FDA-209P by the plate diluted method; conditions: Staphylococcus aureus, FDA209P
# Experimental: (§1) In order to investigate the in vitro activity of the test compounds against various bacteria, the minimal inhibitory concentration (MIC) values were determined by the plate diluted method (See CHEMOTHERAPY, 22, 1126-1128, 1974.)
# (§2) Each strain was adjusted to 1×10^6 cells/ml (O.D. 600 mμ, 0.07 to 0.16).
# E. coli No. 29 = assay: MIC against E. coli No. 29 by the plate diluted method; conditions: Escherichia coli, 1×10^6 cells/ml
# Experimental: as §1, §2
# K. pneumoniae NCTC-9632 = assay: MIC against K. pneumoniae NCTC-9632 by the plate diluted method; conditions: Klebsiella pneumoniae, NCTC9632; K. pneumoniae NCTC-9632; 1×10^6 cells/ml; read-out: MIC
# Experimental: as §1, §2
# M. moganii IIDkono = assay: MIC against M. moganii IIDkono by the plate diluted method
# Experimental: as §1, §2
# S. marcescens IFO 12648 = assay: MIC against S. marcescens IFO 12648 by the plate diluted method; conditions: Serratia marcescens, IFO12648; S. marcescens IFO 12648; 1×10^6 cells/ml; read-out: MIC
# Experimental: as §1, §2
# A. calcoaceticus Ac-54 = assay: MIC against A. calcoaceticus Ac-54 by the plate diluted method; conditions: Acinetobacter calcoaceticus, AC54; A. calcoaceticus Ac-54; 1×10^6 cells/ml; read-out: MIC
# Experimental: as §1, §2
# P. aeruginosa ATCC-10145 = assay: MIC against P. aeruginosa ATCC-10145 by the plate diluted method; conditions: Pseudomonas aeruginosa, ATCC10145; P. aeruginosa ATCC-10145; 1×10^6 cells/ml; read-out: MIC
# Experimental: as §1, §2
# P. aeruginosa E-2 = assay: MIC against P. aeruginosa E-2 by the plate diluted method; conditions: Pseudomonas aeruginosa, E2; P. aeruginosa E-2; 1×10^6 cells/ml; read-out: MIC
# Experimental: as §1, §2
# [1] = S. aureaus FDA-209P, 1×10^6 cells/ml, read-out: MIC
# [2] = M. moganii IIDkono, 1×10^6 cells/ml, read-out: MIC
MIC (S. aureaus FDA-209P; [1]) [µg/mL],Structure (SMILES),MIC (E. coli No. 29) [µg/mL],MIC (K. pneumoniae NCTC-9632) [µg/mL],MIC (M. moganii IIDkono) [µg/mL],MIC (S. marcescens IFO 12648) [µg/mL],MIC (A. calcoaceticus Ac-54) [µg/mL],MIC (P. aeruginosa ATCC-10145) [µg/mL],MIC (P. aeruginosa E-2) [µg/mL],MIC (S. aureaus FDA-209P) [µg/mL],MIC (M. moganii IIDkono; [2]) [µg/mL]
–,"Cc1nnc(SCC2=C(C(=O)O)N3C(=O)[C@@H](NC(=O)/C(=N\OC(C(=O)O)c4ccc(O)c(O)c4)c4csc(N)n4)[C@H]3CS2)s1 (stereo partly drawn) [No. 6, (6S,7S)-7-{(Z)-2-(2-aminothiazol-4-yl)-2-[carboxy(3,4-dihydroxyphenol)methoxyimino]}acetamide-3-(2-methyl-1,3,4-thiadiazol-5-ylthiomethyl)isocephem-4-carboxylic acid]",0.012,≤ 0.006,–,0.012,0.2,0.2,0.39,3.13,0.024
0.39,"CO/N=C(\C(=O)N[C@@H]1C(=O)N2C(C(=O)[O-])=C(CSc3cc[n+](CC(=O)c4ccc(O)c(O)c4)cc3)CS[C@H]12)c1csc(N)n1 [No. 17, (6R,7R)-[(Z)-2-(2-aminothiazol-4-yl)-2-methoxyiminoacetamide]-3-[[1-[2-(3,4-dihydroxyphenyl)-2-oxo]ethyl]-4-pyridinio]thiomethyl-3-cephem-4-carboxylat]",0.012,0.012,–,0.05,0.1,0.2,0.39,–,0.1
–,"CC(C)(O/N=C(\C(=O)N[C@@H]1C(=O)N2C(C(=O)[O-])=C(CSc3cc[n+](Cc4cc(=O)c(O)c[nH]4)cc3)SC[C@H]12)c1csc(N)n1)C(=O)O [No. 7, (6S,7S)-7-[(Z)-2-(2-aminothiazol-4-yl)-2-(1-carboxy-1-methylethoxy)imino]acetamide-3-[(5-hydroxy-4-pyridone-2-yl)methyl-4-pyridinio]thiomethylisocephem-4-carboxylate]",0.012,0.012,–,0.012,0.2,0.1,0.1,3.13,0.024
50,"Nc1nc(/C(=N/OCc2cc(=O)c(O)cn2O)C(=O)N[C@@H]2C(=O)N3C(C(=O)O)=C(CSc4nnnn4CCO)SC[C@H]23)cs1 [No. 11, (6S,7S)-7-[(Z)-2-(2-aminothiazol-4-yl)-2-(1,5-dihydroxy-4-pyridone-2-ylmethoxyimino)acetamide]-3-[1-(2-hydroxyethyl)-1H-tetrazole-5-ylthiomethyl]isocephem-4-carboxylic acid]",0.05,0.012,–,0.012,0.2,0.05,0.05,–,0.024
–,CC(C)(O/N=C(\C(=O)N[C@@H]1C(=O)N2C(C(=O)[O-])=C(CSc3cc[n+](CC(=O)NNC(=O)c4ccc(O)c(O)c4)cc3)SC[C@H]12)c1csc(N)n1)C(=O)O [No. 4],0.012,≤ 0.006,–,0.024,0.2,0.1,0.1,3.13,0.024
–,"Cc1nnc(SCC2=C(C(=O)O)N3C(=O)[C@@H](NC(=O)/C(=N\OCc4ccc(O)c(O)c4)c4csc(N)n4)[C@H]3CS2)s1 [No. 5, (6S,7S)-7-[(Z)-2-(2-aminothiazol-4-yl)-2-(3,4-dihydroxyphenylmethoxyimino)]acetamide-3-(2-methyl-1,3,4-thiadiazol-5-ylthiomethyl)isocephem-4-carboxylic acid]",0.012,0.012,–,0.05,0.39,0.39,0.39,1.56,0.05
–,"Nc1nc(/C(=N/OCC(=O)O)C(=O)N[C@@H]2C(=O)N3C(C(=O)[O-])=C(CSc4cc[n+](CC(=O)c5ccc(O)c(O)c5)cc4)OC[C@H]23)cs1 [No. 8, (6S,7S)-7-[(Z)-2-(2-aminothiazol-4-yl)-2-(1-carboxymethoxy)iminoacetamide]-3 {[1-[2-(3,4-dihydroxyphenyl)-2-oxo]ethyl]-4-pyridinio}thiomethyl-Δ^3 -O-2-isocephem-4-carboxylate]",≤ 0.006,≤ 0.006,–,0.024,0.05,0.05,0.1,1.56,0.024

Structure (SMILES),MIC (S. aureaus FDA-209P; [1]) [µg/mL],MIC (E. coli No. 29) [µg/mL],MIC (K. pneumoniae NCTC-9632) [µg/mL],MIC (M. moganii IIDkono) [µg/mL],MIC (S. marcescens IFO 12648) [µg/mL],MIC (A. calcoaceticus Ac-54) [µg/mL],MIC (P. aeruginosa ATCC-10145) [µg/mL],MIC (P. aeruginosa E-2) [µg/mL],MIC (S. aureaus FDA-209P) [µg/mL],MIC (M. moganii IIDkono; [2]) [µg/mL]
CC(C)(O/N=C(\C(=O)N[C@@H]1C(=O)N2C(C(=O)[O-])=C(CSc3cc[n+](Cc4cc(=O)c(O)c[nH]4)cc3)CS[C@H]12)c1csc(N)n1)C(=O)O [No. 14],6.25,0.05,0.012,0.05,0.024,0.39,0.2,0.1,–,–
